Data reported in patent US6525001B1, “Substituted pyrimidine and pyridine herbicides” (Mid-American Commercialization Corporation, priority 1997, dated 2003).

What was measured:
Assay in all cases: Test B pre-/postemergence
Assay type in all cases: in vivo
Parameters in all cases: key: 0 is no effect; 10 is complete control
[1] = system: bedstraw (Galium aparine)
In short: (§1)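 Response scores run from 0, meaning no effect, to 10, meaning complete control, assigned by eye relative to controls twelve to sixteen days after spraying. Treatment was both preemergence on planted seed and postemergence on plants at the 1- to 4-leaf stage.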

[2] = system: blackgrass (Alopecurus myosuroides)
In short: as §1

[3] = system: broadleaf signalgrass (Brachiaria decumbens)
In short: as §1

[4] = system: cocklebur (Xanthium strumarium)
In short: as §1

corn (Zea mays) = system: corn (Zea mays)
In short: as §1

[5] = system: crabgrass (Digitaria sanguinalis); details: for Plant response rating, Crabgrass: Preemergence
In short: as §1

[6] = system: giant foxtail (Setaria faberii)
In short: as §1

[7] = system: momingglory (Ipomoea hederacea)
In short: as §1

[8] = system: pigweed (Amaranthus retroflexus)
In short: as §1

[9] = system: purple nutsedge (Cyperus rotundus)
In short: as §1

[10] = system: sugar beet (Beta vulgaris)
In short: as §1

[11] = system: velvetleaf (Abutilon theophrasti)
In short: as §1

[12] = system: wheat (Triticum aestivum)
In short: as §1

wild oat (Avena fatua) = system: wild oat (Avena fatua)
In short: as §1

[13] = Preemergence, Rate 62 g/ha, scale of 0 to 10

Cc1cnc(-c2ccc(C(F)(F)F)cc2)nc1C(=O)c1cccc(OC(F)(F)F)c1 [Compound 75]
Plant response rating, Bedstraw [1, 13]: 3
Bedstraw plant response rating ([1]; Rate 62 g/ha, Postemergence): 5
Bedstraw plant response rating ([1]; Rate 125 g/ha, Postemergence): 9
Plant response rating, Bedstraw ([1]; Rate 125 g/ha, Preemergence): 6
Plant response rating, Bedstraw ([1]; Rate 250 g/ha, Postemergence): 9
Plant response rating, Bedstraw ([1]; Rate 250 g/ha, Preemergence): 6
Plant response rating, Bedstraw ([1]; Rate 500 g/ha, Preemergence): 8
Plant response rating, Blackgrass [2, 13]: 3
Blackgrass plant response rating ([2]; Rate 62 g/ha, Postemergence): 3
Blackgrass plant response rating ([2]; Rate 125 g/ha, Postemergence): 6
Plant response rating, Blackgrass ([2]; Rate 125 g/ha, Preemergence): 8
Plant response rating, Blackgrass ([2]; Rate 250 g/ha, Postemergence): 8
Plant response rating, Blackgrass ([2]; Rate 250 g/ha, Preemergence): 9
Plant response rating, Blackgrass ([2]; Rate 500 g/ha, Preemergence): 10
B. signalgrass plant response rating ([3]; Rate 62 g/ha, Postemergence): 2
B. signalgrass plant response rating ([3]; Rate 62 g/ha, Preemergence): 8
B. signalgrass plant response rating ([3]; Rate 125 g/ha, Postemergence): 2
Plant response rating, B. signalgrass ([3]; Rate 125 g/ha, Preemergence): 9
Plant response rating, B. signalgrass ([3]; Rate 250 g/ha, Postemergence): 3
Plant response rating, B. signalgrass ([3]; Rate 250 g/ha, Preemergence): 9
Plant response rating, B. signalgrass ([3]; Rate 500 g/ha, Preemergence): 9
Plant response rating, Cocklebur [4, 13]: 0
Cocklebur plant response rating ([4]; Rate 62 g/ha, Postemergence): 7
Cocklebur plant response rating ([4]; Rate 125 g/ha, Postemergence): 7
Plant response rating, Cocklebur ([4]; Rate 125 g/ha, Preemergence): 0
Plant response rating, Cocklebur ([4]; Rate 250 g/ha, Postemergence): 7
Plant response rating, Cocklebur ([4]; Rate 250 g/ha, Preemergence): 2
Plant response rating, Cocklebur ([4]; Rate 500 g/ha, Preemergence): 9
Plant response rating, Corn (corn (Zea mays); [13]): 0
Corn plant response rating (corn (Zea mays); Rate 62 g/ha, Postemergence): 2
Corn plant response rating (corn (Zea mays); Rate 125 g/ha, Postemergence): 3
Plant response rating, Corn (corn (Zea mays); Rate 125 g/ha, Preemergence): 0
Plant response rating, Corn (corn (Zea mays); Rate 250 g/ha, Postemergence): 3
Plant response rating, Corn (corn (Zea mays); Rate 250 g/ha, Preemergence): 1
Plant response rating, Corn (corn (Zea mays); Rate 500 g/ha, Preemergence): 2
Plant response rating, Crabgrass ([5]; Rate 62 g/ha, scale of 0 to 10): 6
Crabgrass plant response rating ([5]; Rate 125 g/ha, Postemergence): 4
Plant response rating, Crabgrass ([5]; Rate 125 g/ha): 9
Plant response rating, Crabgrass ([5]; Rate 250 g/ha): 9
Plant response rating, Crabgrass ([5]; Rate 500 g/ha): 10
Plant response rating, Giant foxtail [6, 13]: 1
Giant foxtail plant response rating ([6]; Rate 62 g/ha, Postemergence): 1
Giant foxtail plant response rating ([6]; Rate 125 g/ha, Postemergence): 2
Plant response rating, Giant foxtail ([6]; Rate 125 g/ha, Preemergence): 5
Plant response rating, Giant foxtail ([6]; Rate 250 g/ha, Postemergence): 4
Plant response rating, Giant foxtail ([6]; Rate 250 g/ha, Preemergence): 5
Plant response rating, Giant foxtail ([6]; Rate 500 g/ha, Preemergence): 9
Plant response rating, Morningglory [7, 13]: 6
Morningglory plant response rating ([7]; Rate 62 g/ha, Postemergence): 10
Morningglory plant response rating ([7]; Rate 125 g/ha, Postemergence): 10
Plant response rating, Morningglory ([7]; Rate 125 g/ha, Preemergence): 10
Plant response rating, Morningglory ([7]; Rate 250 g/ha, Postemergence): 10
Plant response rating, Morningglory ([7]; Rate 250 g/ha, Preemergence): 10
Plant response rating, Morningglory ([7]; Rate 500 g/ha, Preemergence): 10
Plant response rating, Redroot pigweed [8, 13]: 9
Redroot pigweed plant response rating ([8]; Rate 62 g/ha, Postemergence): 9
Redroot pigweed plant response rating ([8]; Rate 125 g/ha, Postemergence): 9
Plant response rating, Redroot pigweed ([8]; Rate 125 g/ha, Preemergence): 10
Plant response rating, Redroot pigweed ([8]; Rate 250 g/ha, Postemergence): 10
Plant response rating, Redroot pigweed ([8]; Rate 250 g/ha, Preemergence): 10
Plant response rating, Redroot pigweed ([8]; Rate 500 g/ha, Preemergence): 10
Plant response rating, Nutsedge [9, 13]: 0
Nutsedge plant response rating ([9]; Rate 62 g/ha, Postemergence): 0
Nutsedge plant response rating ([9]; Rate 125 g/ha, Postemergence): 0
Plant response rating, Nutsedge ([9]; Rate 125 g/ha, Preemergence): 0
Plant response rating, Nutsedge ([9]; Rate 250 g/ha, Postemergence): 0
Plant response rating, Nutsedge ([9]; Rate 250 g/ha, Preemergence): 0
Plant response rating, Nutsedge ([9]; Rate 500 g/ha, Preemergence): 0
Plant response rating, Sugarbeets [10, 13]: 9
Sugarbeets plant response rating ([10]; Rate 62 g/ha, Postemergence): 10
Sugarbeets plant response rating ([10]; Rate 125 g/ha, Postemergence): 10
Plant response rating, Sugarbeets ([10]; Rate 125 g/ha, Preemergence): 10
Plant response rating, Sugarbeets ([10]; Rate 250 g/ha, Postemergence): 10
Plant response rating, Sugarbeets ([10]; Rate 250 g/ha, Preemergence): 10
Plant response rating, Sugarbeets ([10]; Rate 500 g/ha, Preemergence): 10
Plant response rating, Velvetleaf [11, 13]: 2
Velvetleaf plant response rating ([11]; Rate 62 g/ha, Postemergence): 8
Velvetleaf plant response rating ([11]; Rate 125 g/ha, Postemergence): 9
Plant response rating, Velvetleaf ([11]; Rate 125 g/ha, Preemergence): 8
Plant response rating, Velvetleaf ([11]; Rate 250 g/ha, Postemergence): 9
Plant response rating, Velvetleaf ([11]; Rate 250 g/ha, Preemergence): 9
Plant response rating, Velvetleaf ([11]; Rate 500 g/ha, Preemergence): 10
Plant response rating, Wheat [12, 13]: 0
Wheat plant response rating ([12]; Rate 62 g/ha, Postemergence): 2
Wheat plant response rating ([12]; Rate 125 g/ha, Postemergence): 2
Plant response rating, Wheat ([12]; Rate 125 g/ha, Preemergence): 4
Plant response rating, Wheat ([12]; Rate 250 g/ha, Postemergence): 3
Plant response rating, Wheat ([12]; Rate 250 g/ha, Preemergence): 4
Plant response rating, Wheat ([12]; Rate 500 g/ha, Preemergence): 5
Plant response rating, Wild oats (wild oat (Avena fatua); [13]): 5
Wild oats plant response rating (wild oat (Avena fatua); Rate 62 g/ha, Postemergence): 3
Wild oats plant response rating (wild oat (Avena fatua); Rate 125 g/ha, Postemergence): 3
Plant response rating, Wild oats (wild oat (Avena fatua); Rate 125 g/ha, Preemergence): 7
Plant response rating, Wild oats (wild oat (Avena fatua); Rate 250 g/ha, Postemergence): 3
Plant response rating, Wild oats (wild oat (Avena fatua); Rate 250 g/ha, Preemergence): 7
Plant response rating, Wild oats (wild oat (Avena fatua); Rate 500 g/ha, Preemergence): 9
